Source: patent publication US9993459B2, “Selective HDAC6 inhibitors and uses thereof” (Universiteit Gent, priority 2015, dated 2018)
“And” between values parts separate entries of the source, which are not always exact repeats. Equal values may be shown once.

Assays:
HDAC10 = biological target: T1, HDAC10 (Homo sapiens, UniProt Q969S8); assay: In vitro HDAC isozyme selectivity screen: HDAC10; assay type: biochemical; details: Table 2
T1 sequence (Q969S8 1-669): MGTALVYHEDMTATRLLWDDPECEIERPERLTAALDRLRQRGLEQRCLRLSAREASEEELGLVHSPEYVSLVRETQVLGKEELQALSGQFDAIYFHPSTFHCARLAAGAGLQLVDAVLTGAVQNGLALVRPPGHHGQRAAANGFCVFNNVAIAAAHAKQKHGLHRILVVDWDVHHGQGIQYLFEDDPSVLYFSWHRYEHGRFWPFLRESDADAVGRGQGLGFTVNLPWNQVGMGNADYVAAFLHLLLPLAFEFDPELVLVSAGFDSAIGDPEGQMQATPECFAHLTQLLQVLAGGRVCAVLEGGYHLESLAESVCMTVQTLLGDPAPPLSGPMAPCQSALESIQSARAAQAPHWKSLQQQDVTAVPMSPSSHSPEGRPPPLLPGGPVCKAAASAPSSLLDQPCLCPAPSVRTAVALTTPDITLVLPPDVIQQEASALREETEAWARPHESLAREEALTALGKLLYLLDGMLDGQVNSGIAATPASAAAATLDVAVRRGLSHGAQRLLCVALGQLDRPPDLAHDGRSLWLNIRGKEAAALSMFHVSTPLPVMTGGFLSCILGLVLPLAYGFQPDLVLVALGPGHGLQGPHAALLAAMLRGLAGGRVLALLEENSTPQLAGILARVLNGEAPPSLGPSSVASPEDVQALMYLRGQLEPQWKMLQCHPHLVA

HDAC11 = biological target: T2, HDAC11 (Homo sapiens, UniProt Q96DB2); assay: In vitro HDAC isozyme selectivity screen: HDAC11; assay type: biochemical; details: Table 2
T2 sequence (Q96DB2 1-347): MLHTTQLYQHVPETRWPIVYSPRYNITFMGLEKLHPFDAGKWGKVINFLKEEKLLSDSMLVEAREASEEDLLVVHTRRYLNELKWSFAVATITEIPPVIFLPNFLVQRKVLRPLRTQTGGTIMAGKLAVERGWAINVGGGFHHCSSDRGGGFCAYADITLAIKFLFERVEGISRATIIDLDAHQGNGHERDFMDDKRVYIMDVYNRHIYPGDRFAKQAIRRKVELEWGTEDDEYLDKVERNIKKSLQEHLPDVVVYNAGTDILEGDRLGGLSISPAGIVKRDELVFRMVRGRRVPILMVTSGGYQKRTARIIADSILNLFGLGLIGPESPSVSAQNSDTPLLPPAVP

HDAC5 = HDAC5 (Homo sapiens, UniProt Q9UQL6); assay: In vitro HDAC isozyme selectivity screen: HDAC5; assay type: biochemical; details: for IC50: Table 2
Chain of HDAC5 (Q9UQL6 whole entry, species assumed): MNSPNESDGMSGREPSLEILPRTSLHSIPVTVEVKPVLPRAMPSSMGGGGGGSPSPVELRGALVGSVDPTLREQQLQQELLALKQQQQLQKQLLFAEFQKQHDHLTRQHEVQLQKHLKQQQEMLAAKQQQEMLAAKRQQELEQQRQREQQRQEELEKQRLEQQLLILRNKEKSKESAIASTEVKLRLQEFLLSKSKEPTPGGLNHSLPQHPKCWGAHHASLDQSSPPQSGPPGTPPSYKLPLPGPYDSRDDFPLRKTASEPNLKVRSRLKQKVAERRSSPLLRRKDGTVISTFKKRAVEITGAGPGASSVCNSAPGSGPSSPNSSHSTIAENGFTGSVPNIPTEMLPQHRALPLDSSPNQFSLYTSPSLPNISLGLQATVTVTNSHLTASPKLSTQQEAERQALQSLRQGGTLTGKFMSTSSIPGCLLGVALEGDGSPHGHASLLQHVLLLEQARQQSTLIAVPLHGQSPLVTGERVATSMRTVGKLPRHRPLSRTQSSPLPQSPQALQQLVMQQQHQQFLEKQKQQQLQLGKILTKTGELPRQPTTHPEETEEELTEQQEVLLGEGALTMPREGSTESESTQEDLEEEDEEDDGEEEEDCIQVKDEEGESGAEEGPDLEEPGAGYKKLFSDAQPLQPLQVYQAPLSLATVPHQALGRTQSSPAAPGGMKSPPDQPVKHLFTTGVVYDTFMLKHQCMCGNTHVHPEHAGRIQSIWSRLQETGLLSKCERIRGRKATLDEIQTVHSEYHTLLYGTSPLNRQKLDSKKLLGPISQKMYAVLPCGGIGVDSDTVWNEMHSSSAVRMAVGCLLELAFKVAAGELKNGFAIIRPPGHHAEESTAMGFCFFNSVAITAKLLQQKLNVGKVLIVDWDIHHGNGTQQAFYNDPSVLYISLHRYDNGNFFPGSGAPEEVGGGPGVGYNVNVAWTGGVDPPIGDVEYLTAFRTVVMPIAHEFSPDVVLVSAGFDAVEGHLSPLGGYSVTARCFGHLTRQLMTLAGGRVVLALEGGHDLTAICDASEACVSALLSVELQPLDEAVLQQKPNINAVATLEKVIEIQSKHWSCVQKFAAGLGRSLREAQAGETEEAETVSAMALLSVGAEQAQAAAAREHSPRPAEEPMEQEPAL

HDAC8 = biological target: T3, HDAC8 (Homo sapiens, UniProt Q9BY41); assay: In vitro HDAC isozyme selectivity screen: HDAC8; assay type: biochemical; details: for IC50: Table 2
T3 sequence (Q9BY41 1-377): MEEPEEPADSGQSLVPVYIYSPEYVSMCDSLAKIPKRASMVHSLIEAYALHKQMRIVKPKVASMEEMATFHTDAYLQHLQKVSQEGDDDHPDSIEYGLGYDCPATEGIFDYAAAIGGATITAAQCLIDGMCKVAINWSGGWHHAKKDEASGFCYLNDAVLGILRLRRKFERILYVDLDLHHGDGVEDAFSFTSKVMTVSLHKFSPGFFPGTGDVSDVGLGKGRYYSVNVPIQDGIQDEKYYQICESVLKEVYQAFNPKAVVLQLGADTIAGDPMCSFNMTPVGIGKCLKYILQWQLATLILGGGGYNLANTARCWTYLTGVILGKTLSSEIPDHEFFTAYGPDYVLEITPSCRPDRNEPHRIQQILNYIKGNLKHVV

HDAC9 = HDAC9 (Homo sapiens, UniProt Q9UKV0); assay: In vitro HDAC isozyme selectivity screen: HDAC9; assay type: biochemical; details: for IC50: Table 2
Chain of HDAC9 (Q9UKV0 whole entry, species assumed): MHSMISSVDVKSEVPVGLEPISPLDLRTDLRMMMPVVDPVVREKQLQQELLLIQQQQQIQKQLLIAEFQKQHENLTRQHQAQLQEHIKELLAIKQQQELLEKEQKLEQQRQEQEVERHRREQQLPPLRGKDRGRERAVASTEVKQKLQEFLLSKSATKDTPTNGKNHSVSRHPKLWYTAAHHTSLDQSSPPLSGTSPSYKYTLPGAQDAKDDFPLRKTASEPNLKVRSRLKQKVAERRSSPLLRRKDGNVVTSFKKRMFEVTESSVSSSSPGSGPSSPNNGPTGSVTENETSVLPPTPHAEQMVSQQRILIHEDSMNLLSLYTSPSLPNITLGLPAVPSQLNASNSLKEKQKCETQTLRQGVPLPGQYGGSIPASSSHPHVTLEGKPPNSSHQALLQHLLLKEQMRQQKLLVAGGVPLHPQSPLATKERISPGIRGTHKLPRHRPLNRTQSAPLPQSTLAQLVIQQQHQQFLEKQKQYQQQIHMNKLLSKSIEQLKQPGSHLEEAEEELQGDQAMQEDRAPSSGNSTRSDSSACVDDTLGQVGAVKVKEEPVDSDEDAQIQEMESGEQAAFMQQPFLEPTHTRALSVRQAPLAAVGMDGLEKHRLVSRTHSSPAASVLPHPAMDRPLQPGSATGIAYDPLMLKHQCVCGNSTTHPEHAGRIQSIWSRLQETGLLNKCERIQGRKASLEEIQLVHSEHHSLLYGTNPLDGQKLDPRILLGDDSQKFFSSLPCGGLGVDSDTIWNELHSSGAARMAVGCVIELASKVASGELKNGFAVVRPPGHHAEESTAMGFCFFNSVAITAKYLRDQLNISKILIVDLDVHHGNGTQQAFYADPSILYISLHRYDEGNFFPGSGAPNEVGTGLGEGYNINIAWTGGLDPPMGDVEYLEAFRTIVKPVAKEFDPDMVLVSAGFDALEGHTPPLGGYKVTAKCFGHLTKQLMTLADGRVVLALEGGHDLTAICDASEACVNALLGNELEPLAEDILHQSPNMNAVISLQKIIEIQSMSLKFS

[1] = system: acetylation of α-tubulin in Neuro-2a cells; assay: Acetylation level of α-tubulin in Neuro-2a cells (Western blot); assay type: cell-based, Mouse; details: for normalized ratio Acetyl α-Tubulin/α-Tubulin against Tubastatin A, Average: Average of N = 1 to 4; for effect on the acetylation level of α-tubulin compared with Tubastatin A: Neuro-2a cells, in words
Experimental: FIG. 1: Potency of inhibiting HDAC6 by compounds 7a, 7b and 13a in Neuro-2a cells. A. Cells were treated overnight with different concentrations of the HDAC6 inhibitors and blotted of the acetylation of α-tubulin.
Mouse neuroblastoma (Neuro-2a) cells were grown in a 1:1 mix of D-MEM (Dulbecco's Modified Eagle Medium) and F12 medium supplemented with glutamax (Invitrogen), 100 μg/ml streptomycin, 100 U/ml penicillin (Invitrogen), 10% fetal calf serum (Greiner Bio-one), 1% non-essential amino acids (Invitrogen) and 1.6% NaHCO3 (Invitrogen) at 37° C. and 7.5% CO2. To split the cells, cells were washed with Versene (Invitrogen) and dissociated with 0.05% Trypsine-EDTA (Invitrogen).
For sodium dodecyl sulfate-polyacrylamide gel electrophoresis (SDS-PAGE) analysis, transfected cells were collected using the EpiQuik Total Histone Extraction Kit (EpiGentek) according to manufacturer's instructions. Protein concentrations were determined using microBCA kit (Thermo Fisher Scientific Inc., Pittsburgh, Pa., USA) according to manufacturer's instructions. Before resolving the samples on a 12% SDS-PAGE gel, samples containing equal amounts of protein were supplemented with reducing sample buffer (Thermo Scientific) and boiled at 95° C. for 5 min. After electrophoresis, the proteins were transferred to a polyvinylidene difluoride (PVDF) membrane (Millipore Corp., Bedford, Mass., USA). The non-specific binding was blocked by incubation of the membrane in 5% bovine serum albumin (BSA), diluted in Tris Buffered Saline Tween (TBST, 50 mM TRIS, 150 mM NaCl, 0.1% Tween-20 (Applichem, Darmstadt, Duitsland) for 1 h at room temperature followed by incubation with primary antibodies overnight. The antibodies, diluted in TBS-T, were directed against α-tubulin (1/5000, T6199, Sigma-Aldrich), and acetylated α-tubulin (1/5000, T6793 monoclonal, Sigma-Aldrich). The secondary antibodies, coupled to alkaline phosphatase (anti-mouse or anti-rabbit, 1/5000, Sigma-Aldrich) were used. Blots were visualised by adding the ECF substrate (Enhanced Chemical Fluorescence, GE Healthcare, Uppsala, Sweden) and imaged with the ImageQuant_LAS 4000. A mild reblotting buffer (Millipore) was applied to strip the blots. ImageQuant TL version 7.0-software was used to quantify the blots.
Neuro-2a cells were treated overnight with different concentrations of the HDAC6 inhibitors and the effect on the acetylation level of α-tubulin was determined using Western blots (FIG. 1).

HDAC2 = HDAC2 (Homo sapiens, UniProt Q92769); assay: In vitro HDAC isozyme selectivity screen: HDAC2; assay type: biochemical; details: for IC50: Table 2
Chain of HDAC2 (Q92769 whole entry, species assumed): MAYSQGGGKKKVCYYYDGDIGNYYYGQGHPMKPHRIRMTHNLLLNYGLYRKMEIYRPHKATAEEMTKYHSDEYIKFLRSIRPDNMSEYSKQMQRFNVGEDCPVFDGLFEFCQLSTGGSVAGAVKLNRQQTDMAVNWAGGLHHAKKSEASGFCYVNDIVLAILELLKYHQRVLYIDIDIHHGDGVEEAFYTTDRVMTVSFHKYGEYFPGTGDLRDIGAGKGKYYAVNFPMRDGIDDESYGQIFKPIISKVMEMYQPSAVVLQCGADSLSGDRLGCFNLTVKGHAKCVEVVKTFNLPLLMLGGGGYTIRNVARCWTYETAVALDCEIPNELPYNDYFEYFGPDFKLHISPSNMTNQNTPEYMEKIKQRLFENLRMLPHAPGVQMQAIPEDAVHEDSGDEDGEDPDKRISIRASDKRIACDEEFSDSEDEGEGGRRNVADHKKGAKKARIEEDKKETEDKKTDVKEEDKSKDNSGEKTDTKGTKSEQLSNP

Compound | IC50 (HDAC10) [µM] | IC50 (HDAC11) [µM] | IC50 (HDAC5) [µM] | IC50 (HDAC8) [µM] | IC50 (HDAC9) [µM] | normalized ratio Acetyl α-Tubulin/α-Tubulin against Tubastatin A, Average ([1]; 10 nM, overnight, Neuro-2a) | normalized ratio Acetyl α-Tubulin/α-Tubulin against Tubastatin A, Average ([1]; 50 nM, overnight, Neuro-2a) | normalized ratio Acetyl α-Tubulin/α-Tubulin against Tubastatin A, Average ([1]; 100 nM, overnight, Neuro-2a) | normalized ratio Acetyl α-Tubulin/α-Tubulin against Tubastatin A, Average ([1]; 500 nM, overnight, Neuro-2a) | normalized ratio Acetyl α-Tubulin/α-Tubulin against Tubastatin A, Average ([1]; 1 μM, overnight, Neuro-2a) | IC50 (HDAC2) [µM] | effect at 100 μM, HDAC5 (HDAC5; 100 μM) | selectivity for HDAC6 over HDAC8 (HDAC8; HDAC8 vs HDAC6 IC50) [fold] | effect at 100 μM, HDAC9 (HDAC9; 100 μM) | normalized ratio Acetyl α-Tubulin/α-Tubulin against Tubastatin A ([1]; 1 μM, overnight, Neuro-2a, single experiments N = 1 to 4, Tub A 1 μM = 100) | effect on the acetylation level of α-tubulin compared with Tubastatin A [1] | effect at 100 μM, HDAC2 (HDAC2; 100 μM)
O=C(NO)c1ccc(NCc2csc3cc(Br)ccc23)cc1 [Compound 13a, 6-bromo-3-[(4-hydroxycarbamoylphenyl)aminomethyl]-benzothiophene] | 7.6 | 1.2 | 45 | 1.9 | 25 | 8.35 | 13.93 | 23.21 | 69.97 | 80.44 | 20 |  |  |  |  |  | 
O=C(NO)c1ccc(NCc2csc3ccc(Br)cc23)cc1 [Compound 7b, 5-bromo-3-[(4-hydroxycarbamoylphenyl)aminomethyl]-benzothiophene] | 33 | 15 | > 100 | 2.1 | > 100 | 8.35 | 15.75 | 27.24 | 63.70 | 83.19 | > 100 | less than 50% | 57 | less than 50% | 99.53 and 83.22 and 69.97 and 80.03 | same effect on the acetylation level of α-tubulin as Tubastatin A | less than 50%
O=C(NO)c1ccc(NCc2csc3ccccc23)cc1 [Compound 7a, 3-[(4-hydroxycarbamoylphenyl)aminomethyl]benzothiophene] | 9.9 | 31 | 17 | 1.4 | 7.1 | 24.02 | 46.70 | 67.40 | 139.23 | 90.45 | 30 |  |  |  |  | same effect on the acetylation level of α-tubulin as Tubastatin A | 
